Results: US5510371A, “Inhibitors of farnesyl-protein transferase” (Merck & Co., Inc., priority 1994, dated 1996)

Molecular target: T1, human recombinant farnesyl-protein transferase (Homo sapiens, UniProt P49354+P49356)
T1 construct: made in house; host or cells: Escherichia coli
Assay: In vitro inhibition of ras farnesyl transferase
Assay type: biochemical
Details: 50 nM 3H-FPP, 0.1 μM ras-CVIM, 2 μg human recombinant FPTase, pH 7.5, 30 minutes at 31° C.; read-out: LC50 (nM) (IC50: concentration of the test compound which gives 50% inhibition of FPTase)
Method: In vitro inhibition of ras farnesyl transferase
Human FPTase was expressed in Escherichia coli and then the recombinant protein was purified as described by Omer, et al., Biochemistry 32, 5167 (1993). The assay was performed in a volume of 100 μl containing 100 mM N-(2-hydroxy ethyl) piperazine-N'-(2-ethane sulfonic acid) (HEPES), pH 7.5, 5 mM MgCl2, 5 mM dithiothreitol (DTT), 10 μM ZnCl2, 0.1% (w/v) polyethylene glycol 20,000, 50 nM 3H!-Farnesyl Pyrophosphate ( 3H!-FPP, […], NEN-DuPont), 0.1 μM ras-CVIM and 2 μg of human recombinant farnesyl-protein transferase. The assay was run in the presence of the compound(s) for 30 minutes at 31° C. and then quenched by placing the tubes in an ice bath for 5 minutes. Trichloracetic acid (TCA, 0.1 ml of 30% (v/v) in ethanol followed by 50 μl of 0.25% (w/v) Bovine Serum Albumin in water was added to the tubes, vortexed for 5 minutes then placed in a 37° C. water bath for 30 minutes to facilitate the hydrolysis of the unused farnesyl pyrophosphate. The precipitate was collected on a Packard double thickness filtermat, using a Tomtec Mach II Cell Harvester and washed with 8 ml of 100% Ethanol. The filtermats were dried in a microwave oven and counted in a LKB Betaplate counter. The compounds were dissolved in dimethyl sulfoxide and were diluted 20-fold into the assay.
Inhibition of RAS farnesylation by compounds of this invention* […]

T1 sequence (P49356 whole entry, one chain of several): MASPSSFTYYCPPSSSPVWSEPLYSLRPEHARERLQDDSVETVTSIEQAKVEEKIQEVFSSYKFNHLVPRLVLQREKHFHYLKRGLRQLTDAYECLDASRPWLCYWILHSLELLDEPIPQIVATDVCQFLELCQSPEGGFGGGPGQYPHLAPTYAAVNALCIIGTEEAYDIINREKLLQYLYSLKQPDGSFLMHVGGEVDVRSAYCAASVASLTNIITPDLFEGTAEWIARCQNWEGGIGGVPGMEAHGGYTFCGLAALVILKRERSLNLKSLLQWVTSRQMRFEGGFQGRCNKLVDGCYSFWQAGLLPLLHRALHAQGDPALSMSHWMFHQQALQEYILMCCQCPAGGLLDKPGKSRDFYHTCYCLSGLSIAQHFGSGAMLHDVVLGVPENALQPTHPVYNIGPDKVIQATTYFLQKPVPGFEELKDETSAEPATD

CCC(CC(C)C(=O)O)C(=O)CCC1=CC(C)CC(C)=CC(C)C(O)C(C)CCC(CCCCC=CC(C)CCC(C)OC(=O)CC(CC(=O)O)C(=O)O)OC(=O)CC(C(=O)O)CC(=O)OC1 (stereo not shown) [Compound 1, 1,2,3-propanetricarboxylic acid 1-10-4-carboxy 19-(6-carboxy-4-ethyl-3-oxoheptyl)-12-hydroxy-11,13,15,17-tetramethyl-2,6-dioxo-1,7-dioxacycloeiocosa-14,18-dien-8-yl!-1,4-dimethyl-5-decenyl! ester]
IC50: 230 nM
